Data on 2 compounds can be found in paper PMC6409644, “The Inhibitory Effect of Celangulin V on the ATP Hydrolytic Activity of the Complex of V-ATPase Subunits A and B in the Midgut of Mythimna separata” (Toxins, 2019).

Data set [1] deals with T1, V-ATPase subunit A (TSCA mutant) in complex with subunit B (Mythimna separata, UniProt A0A0U1XFD8+A0AAD8DTT7, A0AAD8DTT7:C254A/A0AAD8DTT7:T257S).
T1 construct: gene PYW07_012492; with V-ATPase subunit B
As to the kind of experiment: inhibition of ATP hydrolysis (inorganic phosphate release) by the purified complex; IC50 […], Ki calculated; CV was a suspension. In kind it is biochemical.

For data set [2], the system named is T2, Nc1ncnc2c1ncn2[C@@H]1O[C@H](COP(=O)(O)OP(=O)(O)OP(=O)(O)O)[C@@H](O)[C@H]1O.
T2 construct: with V-ATPase subunit B
As to the kind of experiment: ATP hydrolysis kinetics (inorganic phosphate release), Lineweaver–Burk Km. The format is biochemical, Mythimna separata. To be noted: Mg2+ ([…] MgCl2) ATP binding site of the AB complex (by docking: D416, D436, K437, K438 of subunit A and T439 of subunit B).

T1 sequence (A0AAD8DTT7 1-617, stated change not applied): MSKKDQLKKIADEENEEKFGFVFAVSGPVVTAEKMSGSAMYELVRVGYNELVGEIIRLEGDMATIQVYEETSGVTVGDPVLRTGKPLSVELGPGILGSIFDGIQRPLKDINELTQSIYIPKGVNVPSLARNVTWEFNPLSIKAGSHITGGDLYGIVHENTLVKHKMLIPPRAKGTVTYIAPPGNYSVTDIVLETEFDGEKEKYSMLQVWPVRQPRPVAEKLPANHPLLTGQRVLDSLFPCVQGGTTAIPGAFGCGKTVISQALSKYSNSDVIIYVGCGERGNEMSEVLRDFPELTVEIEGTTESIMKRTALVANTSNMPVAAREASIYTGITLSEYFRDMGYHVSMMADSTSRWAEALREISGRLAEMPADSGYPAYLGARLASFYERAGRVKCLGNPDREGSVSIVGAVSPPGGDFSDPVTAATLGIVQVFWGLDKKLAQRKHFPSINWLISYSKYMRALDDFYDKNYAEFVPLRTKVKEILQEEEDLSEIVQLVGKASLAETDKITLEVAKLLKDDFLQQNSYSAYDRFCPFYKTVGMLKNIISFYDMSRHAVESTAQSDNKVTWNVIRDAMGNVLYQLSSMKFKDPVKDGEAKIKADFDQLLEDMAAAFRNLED
T1 sequence (A0A0U1XFD8 1-497): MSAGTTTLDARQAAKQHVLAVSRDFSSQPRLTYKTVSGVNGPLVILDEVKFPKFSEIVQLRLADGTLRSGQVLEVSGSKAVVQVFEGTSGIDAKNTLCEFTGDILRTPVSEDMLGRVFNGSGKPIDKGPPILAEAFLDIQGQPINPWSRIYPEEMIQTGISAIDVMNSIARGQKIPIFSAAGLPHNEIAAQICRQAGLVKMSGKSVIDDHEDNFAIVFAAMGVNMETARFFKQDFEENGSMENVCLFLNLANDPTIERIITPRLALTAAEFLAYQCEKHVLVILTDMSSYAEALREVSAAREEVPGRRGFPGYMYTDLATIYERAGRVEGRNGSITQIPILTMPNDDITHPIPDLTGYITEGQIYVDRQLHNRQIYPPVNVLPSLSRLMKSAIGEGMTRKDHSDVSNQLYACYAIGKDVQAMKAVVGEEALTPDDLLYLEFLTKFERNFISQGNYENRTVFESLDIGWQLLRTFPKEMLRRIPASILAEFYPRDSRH

Usually Ki stands for a measure of affinity in units of concentration, obtained from inhibition or displacement. With `CC(=O)O[C@H]1C[C@](C)(O)C23OC(C)(C)[C@H]([C@H](OC(=O)C(C)C)[C@@H](OC(=O)c4ccccc4)[C@]2(COC(=O)C(C)C)[C@H]1OC(C)=O)[C@H]3O` [CV, Celangulin V], the Ki in data set [1] was 10 µM. In general, Km refers to the concentration of substrate that gives half-maximal velocity. Consider “V-ATPase subunit A (TSCA mutant) in complex with subunit B (Mythimna separata; A0AAD8DTT7:C254A/A0AAD8DTT7:T257S)”, for which the Km in data set [2] came to 268 µM.
